In ChEMBL document CHEMBL4417631, “Oral peptide inhibitors of interleukin-23 receptor and their use to treat inflammatory bowel diseases” (2017):
Where a SMILES comes first, the peptide text is derived from it. Bridges are numbered along the chain shown (N, C = ends). Roman numbers before positions name the chains, in order. [ ]: non-standard residue; d: D form. hLeu = CC(C)CC[C@H](N)C(=O)O

Biological target: T1, Interleukin-23 receptor (Homo sapiens, UniProt Q5VWK5)
T1 sequence (Q5VWK5 whole entry): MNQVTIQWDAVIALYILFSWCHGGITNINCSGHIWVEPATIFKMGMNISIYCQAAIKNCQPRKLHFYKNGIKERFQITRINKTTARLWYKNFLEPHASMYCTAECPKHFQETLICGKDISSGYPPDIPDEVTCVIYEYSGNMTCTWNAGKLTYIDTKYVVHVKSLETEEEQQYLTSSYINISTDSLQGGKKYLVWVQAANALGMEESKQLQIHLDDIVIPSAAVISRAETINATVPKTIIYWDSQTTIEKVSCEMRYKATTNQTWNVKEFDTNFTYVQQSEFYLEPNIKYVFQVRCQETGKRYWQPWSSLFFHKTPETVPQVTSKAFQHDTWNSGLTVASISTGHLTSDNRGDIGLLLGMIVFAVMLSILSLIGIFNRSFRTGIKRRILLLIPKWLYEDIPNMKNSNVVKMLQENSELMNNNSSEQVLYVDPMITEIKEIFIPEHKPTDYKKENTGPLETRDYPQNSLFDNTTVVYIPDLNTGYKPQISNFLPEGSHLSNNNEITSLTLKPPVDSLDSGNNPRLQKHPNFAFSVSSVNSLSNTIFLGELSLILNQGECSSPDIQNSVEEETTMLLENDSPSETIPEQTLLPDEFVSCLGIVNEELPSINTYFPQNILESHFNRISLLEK
Assay: Inhibition of interleukin-23 binding to human interleukin-23 receptor incubated for 2 hrs by competitive binding ELISA

Row | IC50 [µM] | Compound
1 | < 0.5 | CC(=O)N[C@@H](CS)C(=O)N[C@@H](CCCCN)C(=O)N[C@H](C(=O)N[C@@H](Cc1c[nH]c2ccccc12)C(=O)N[C@H](C(=O)N[C@@H](CS)C(=O)N[C@@H](Cc1ccc(O)cc1)C(=O)N[C@@H](Cc1c[nH]c2ccccc12)C(=O)N[C@@H](Cc1cnc[nH]1)C(=O)N[C@@H](CCC(=O)O)C(=O)N[C@@H](Cc1ccccc1)C(=O)NCC(N)=O)[C@@H](C)O)[C@@H](C)O (Ac-CKTWTCYWHEFG-NH2)
2 | < 0.5 | Ac-QTWQCYWRK(Ac)NG-NH2
3 | > 1 | CC(=O)N[C@@H](CS)C(=O)N[C@@H](C)C(=O)N[C@@H](CC(=O)O)C(=O)N[C@@H](Cc1c[nH]c2ccccc12)C(=O)N[C@H](C(=O)N[C@@H](CS)C(=O)N[C@@H](Cc1ccc(O)cc1)C(=O)N[C@@H](Cc1cccc2ccccc12)C(=O)N[C@@H](Cc1cnc[nH]1)C(=O)NCCOCCC(N)=O)C(C)C
4 | > 10 | CC(=O)N[C@@H](CS)C(=O)N[C@@H](C)C(=O)N[C@@H](CC(=O)O)C(=O)N[C@@H](Cc1c[nH]c2ccccc12)C(=O)N[C@@H](CCCCNC(=O)COCC(=O)NCCCC[C@H](NC(=O)[C@H](Cc1c[nH]c2ccccc12)NC(=O)[C@H](CC(=O)O)NC(=O)[C@H](C)NC(=O)[C@H](CS)NC(C)=O)C(=O)N[C@@H](CS)C(=O)N[C@@H](Cc1ccc(O)cc1)C(=O)N[C@@H](Cc1c[nH]c2ccccc12)C(=O)N[C@@H](Cc1cnc[nH]1)C(=O)N[C@H](C(=O)N[C@@H](Cc1ccccc1)C(=O)NCC(=O)O)[C@@H](C)O)C(=O)N[C@@H](CS)C(=O)N[C@@H](Cc1ccc(O)cc1)C(=O)N[C@@H](Cc1c[nH]c2ccccc12)C(=O)N[C@@H](Cc1cnc[nH]1)C(=O)N[C@H](C(=O)N[C@@H](Cc1ccccc1)C(=O)NCC(=O)O)[C@@H](C)O
5 | 0.5 to 1 | CC(=O)N[C@@H](CS)C(=O)N[C@@H](C)C(=O)N[C@@H](CC(=O)O)C(=O)N[C@@H](Cc1c[nH]c2ccccc12)C(=O)N[C@H](C(=O)N[C@@H](CS)C(=O)N[C@@H](Cc1ccc(O)cc1)C(=O)N[C@@H](Cc1c[nH]c2ccccc12)C(=O)N[C@@H](Cc1cnc[nH]1)C(=O)N[C@@H](CCC(=O)O)C(=O)N[C@@H](Cc1ccccc1)C(=O)NCC(N)=O)C(C)C
6 | > 10 | CC(=O)N[C@@H](CS)C(=O)N[C@@H](CCC(N)=O)C(=O)N[C@H](C(=O)N[C@@H](CCCNC(=N)N)C(=O)N[C@@H](CCC(N)=O)C(=O)N[C@@H](CS)C(=O)N[C@@H](Cc1ccc(O)cc1)C(=O)N[C@@H](Cc1c[nH]c2ccccc12)C(=O)N[C@@H](CCC(C)C)C(=O)N[C@@H](CCC(=O)O)C(=O)N[C@@H](CC(N)=O)C(=O)NCC(N)=O)[C@@H](C)O (Ac-CQTRQCYW[hLeu]ENG-NH2)
7 | > 1 | CC(C)[C@H](NC(=O)[C@H](Cc1ccc2ccccc2c1)NC(=O)[C@H](CC(=O)O)NC(=O)[C@H](C)NC(=O)[C@@H](N)CS)C(=O)N[C@@H](CS)C(=O)N[C@@H](Cc1ccc(O)cc1)C(=O)N[C@@H](Cc1c[nH]c2ccccc12)C(=O)N[C@@H](Cc1cnc[nH]1)C(=O)N[C@H](C(=O)N[C@@H](Cc1ccccc1)C(=O)NCC(N)=O)[C@@H](C)O
8 | > 6 | CCCCCCCCCCCCCCCC(=O)NCCCC[C@H](NC(=O)[C@H](CCCN)NC(=O)[C@H](Cc1c[nH]c2ccccc12)NC(=O)[C@H](Cc1ccc(O)cc1)NC(=O)[C@H](CS)NC(=O)[C@H](CCC(N)=O)NC(=O)[C@H](Cc1c[nH]c2ccccc12)NC(=O)[C@@H](NC(=O)[C@H](CCC(N)=O)NC(=O)[C@H](CS)NC(C)=O)[C@@H](C)O)C(=O)N[C@@H](CC(N)=O)C(=O)NCC(N)=O
9 | > 1 | CC(=O)N[C@@H](CS)C(=O)N[C@@H](CCCNC(=N)N)C(=O)N[C@@H](CC(=O)O)C(=O)N[C@@H](Cc1c[nH]c2ccccc12)C(=O)N[C@@H](CCC(N)=O)C(=O)N[C@@H](CS)C(=O)N[C@@H](Cc1ccc(O)cc1)C(=O)N[C@@H](Cc1c[nH]c2ccccc12)C(=O)N(C)[C@@H](CCCNC(=N)N)C(=O)N[C@@H](CCCCN)C(=O)N[C@@H](Cc1ccccc1)C(=O)NCC(=O)NCCOCCC(=O)N[C@H](CCCCN)C(N)=O
10 | 1 to 10 | CC(=O)N[C@H](C(=O)N[C@@H](C)C(=O)N[C@@H](CC(=O)O)C(=O)N[C@@H](Cc1c[nH]c2ccccc12)C(=O)N[C@H](C(=O)N[C@@H](CS)C(=O)N[C@@H](Cc1ccc(O)cc1)C(=O)N[C@@H](Cc1c[nH]c2ccccc12)C(=O)N[C@@H](Cc1cnc[nH]1)C(=O)N[C@H](C(=O)N[C@@H](Cc1ccccc1)C(=O)NCC(N)=O)[C@@H](C)O)C(C)C)C(C)(C)S
11 | 0.025 to 0.1 | CC(=O)NCCCC[C@H](NC(=O)[C@](C)(CCCCN)NC(=O)[C@H](Cc1ccc2ccccc2c1)NC(=O)[C@H](Cc1ccc(O)cc1)NC(=O)[C@@H]1CSCC[C@H](NC(C)=O)C(=O)N[C@@H](CCC(N)=O)C(=O)N[C@@H]([C@@H](C)O)C(=O)N[C@@H](Cc2c[nH]c3ccccc23)C(=O)N[C@@H](CCC(N)=O)C(=O)N1)C(=O)N[C@@H](CC(N)=O)C(=O)NCC(=O)NCC(=O)N[C@@H](CCC(=O)O)C(N)=O
12 | > 30 | CSCC[C@H](NC(=O)[C@@H](N)CS)C(=O)N[C@H](C(=O)N[C@@H](Cc1c[nH]c2ccccc12)C(=O)N[C@@H](CCC(N)=O)C(=O)N[C@@H](CS)C(=O)N[C@@H](Cc1ccc(O)cc1)C(=O)N[C@@H](Cc1c[nH]c2ccccc12)C(=O)N[C@@H](CC(C)C)C(=O)N[C@@H](Cc1ccc(O)cc1)C(=O)NCC(=O)N[C@@H](CCCNC(=N)N)C(=O)NCCOCC(=O)N[C@H](CCCCN)C(N)=O)[C@@H](C)O
13 | > 1 | CC(C)[C@H](NC(=O)[C@H](Cc1ccc(-c2ccccc2)cc1)NC(=O)[C@H](CC(=O)O)NC(=O)[C@H](C)NC(=O)[C@@H](N)CS)C(=O)N[C@@H](CS)C(=O)N[C@@H](Cc1ccc(O)cc1)C(=O)N[C@@H](Cc1c[nH]c2ccccc12)C(=O)N[C@@H](Cc1cnc[nH]1)C(=O)N[C@H](C(=O)N[C@@H](Cc1ccccc1)C(=O)NCC(N)=O)[C@@H](C)O
14 | > 1 | CC(C)[C@H](NC(=O)[C@H](Cc1c[nH]c2ccccc12)NC(=O)[C@H](CC(=O)O)NC(=O)CN(C)C(=O)[C@@H](N)CS)C(=O)N[C@@H](CS)C(=O)N[C@@H](Cc1ccc(O)cc1)C(=O)N[C@@H](Cc1cccc2ccccc12)C(=O)N[C@@H](Cc1cnc[nH]1)C(=O)N[C@H](C(=O)N[C@@H](Cc1ccccc1)C(=O)O)[C@@H](C)O
15 | > 10 | CC(=O)N[C@@H](CS)C(=O)N[C@@H](CCC(N)=O)C(=O)N[C@H](C(=O)N[C@@H](CCC(=O)O)C(=O)N[C@@H](CCC(N)=O)C(=O)N[C@@H](CS)C(=O)N[C@@H](Cc1ccc(O)cc1)C(=O)N[C@@H](Cc1c[nH]c2ccccc12)C(=O)N[C@@H](CCC(C)C)C(=O)N[C@@H](CCC(=O)O)C(=O)N[C@@H](CC(N)=O)C(=O)NCC(N)=O)[C@@H](C)O (Ac-CQTEQCYW[hLeu]ENG-NH2)
16 | > 1 | CC(=O)N[C@@H](CS)C(=O)N[C@@H](CCC(N)=O)C(=O)N[C@H](C(=O)N[C@@H](Cc1c[nH]c2ccccc12)C(=O)N[C@@H](CCC(N)=O)C(=O)N[C@@H](CS)C(=O)N[C@@H](Cc1ccc(O)cc1)C(=O)N[C@@H](Cc1c[nH]c2ccccc12)C(=O)N[C@H](CCCNC(=N)N)C(=O)N[C@H](CCC(=O)O)C(=O)N[C@@H](CC(N)=O)C(=O)NCC(=O)NCCOCC(=O)N[C@H](CCCCN)C(N)=O)[C@@H](C)O
17 | > 3 | CC(=O)N[C@H]1CCSC[C@@H](C(=O)N[C@@H](Cc2ccc(OCCN)cc2)C(=O)N[C@@H](Cc2ccc3ccccc3c2)C(=O)N[C@@](C)(CCCCN)C(=O)N[C@@H](CCC(=O)O)C(=O)N[C@@H](CC(N)=O)C(=O)NCC(N)=O)NC(=O)[C@H](CCC(N)=O)NC(=O)[C@H](c2ccc(Cl)c(Cl)c2)NC(=O)[C@H]([C@@H](C)O)NC(=O)[C@H](CCC(N)=O)NC1=O
18 | < 0.5 | CC(=O)N[C@@H](CS)C(=O)N[C@@H](C)C(=O)N[C@@H](CC(=O)O)C(=O)N[C@@H](Cc1c[nH]c2ccccc12)C(=O)N[C@H](C(=O)N[C@@H](CS)C(=O)N[C@@H](Cc1ccc(O)cc1)C(=O)N[C@@H](Cc1c[nH]c2ccccc12)C(=O)N[C@@H](Cc1cnc[nH]1)C(=O)N[C@H](C(=O)N[C@@H](Cc1ccccc1)C(=O)NCC(=O)NCCCC(=O)N[C@H](CCCCN)C(=O)O)[C@@H](C)O)C(C)C
19 | 0.1 to 1 | CC(=O)N[C@H](C(=O)N[C@@H](CCC(N)=O)C(=O)N[C@H](C(=O)N[C@@H](Cc1c[nH]c2ccccc12)C(=O)N[C@@H](CCC(N)=O)C(=O)N[C@H](C(=O)N[C@@H](Cc1ccc(C#N)cc1)C(=O)N[C@@H](Cc1ccc2ccccc2c1)C(=O)N[C@@](C)(CCCN)C(=O)N[C@@H](CCC(=O)O)C(=O)N[C@@H](CC(N)=O)C(=O)NCC(N)=O)C(C)(C)S)[C@@H](C)O)C(C)(C)S
20 | 1 to 10 | C[C@@H](O)[C@H](NC(=O)[C@@H]1CCCN1C(=O)[C@@H](N)Cc1ccccc1)C(=O)N[C@@H](Cc1c[nH]c2ccccc12)C(=O)N[C@@H](CCC(=O)O)C(=O)N[C@@H](Cc1c[nH]c2ccccc12)C(=O)N[C@@H](Cc1ccc(O)cc1)C(=O)N[C@@H](Cc1c[nH]c2ccccc12)C(=O)N[C@@H](CSSC[C@H](NC(=O)[C@H](Cc1c[nH]c2ccccc12)NC(=O)[C@H](Cc1ccc(O)cc1)NC(=O)[C@H](Cc1c[nH]c2ccccc12)NC(=O)[C@H](CCC(=O)O)NC(=O)[C@H](Cc1c[nH]c2ccccc12)NC(=O)[C@@H](NC(=O)[C@@H]1CCCN1C(=O)[C@@H](N)Cc1ccccc1)[C@@H](C)O)C(=O)N[C@@H](CC(N)=O)C(=O)N[C@@H](CCCNC(=N)N)C(=O)N[C@@H](CC(=O)O)C(N)=O)C(=O)N[C@@H](CC(N)=O)C(=O)N[C@@H](CCCNC(=N)N)C(=O)N[C@@H](CC(=O)O)C(N)=O (I: H-FPTWEWYWCNRD-NH2 / II: H-FPTWEWYWCNRD-NH2; disulfide I:9-II:9)
